Data on one compound can be found in patent publication US8927588B2, “Imidazole carbonyl compound” (Daiichi Sankyo Company, Limited, priority 2007, dated 2015).

Each structure is given as a SMILES string. Converted amounts (≈) assume the structure as drawn. Like-named read-outs stand apart in the source and are kept apart here. Bounds are passed on as bounds.

In data set [1] the target is ParE of Haemophilus influenzae (Haemophilus influenzae, UniProt P43703). The data set is described as follows: ATP hydrolysis inhibition assay (pyruvate kinase/lactate dehydrogenase coupled), ParE of Haemophilus influenzae. In kind it is biochemical. As to the method: The ATP hydrolysis activity of GyrB and ParE was determined by correlating it with ADP production and NADH oxidation mediated by pyruvate kinase/lactate dehydrogenase. This method has been previously reported (Tamura, J. K. and Gellert, M. 1990, J. Biol. Chem. 265:21342-21349).
The ATP hydrolysis assay was carried out in a buffer solution containing final concentrations of 100 mM Tris-HCl (pH 7.5), 150 mM KCl, 1.5 mM MgCl2, 0.4 mM nicotinamide adenine dinucleotide (NADH), 2.5 mM phosphoenolpyruvate, 1 mM DTT, 15 U/ml pyruvate kinase, 10.5 U/ml lactate dehydrogenase and 1 mU/ml enzyme (GyrB or ParE of Streptococcus pneumoniae or Haemophilus influenzae) (provided that the concentration of KCl was 25 mM and the concentration of MgCl2 was 10 mM in the case of ParE of Haemophilus influenzae). A solution of the test compound serially four-fold diluted in DMSO:MeOH (7:3) was added at a final concentration of 5% (v/v). […] ATP was added at a final concentration of 1 mM; after mixing, the absorbance at 340 nm (amount of NADH) was determined (provided that the final ATP concentration was 0.3 mM in the case of ParE of Haemophilus influenzae). The reaction solution was incubated at 30° C. for two hours, and then the absorbance at 340 nm was determined. The ATP hydrolysis inhibition rate (%) was calculated from the difference in absorbance before and after the incubation (amount of NADH oxidized). […]

A short description of data set [2]: Solubility in water (JP1 fluid / JP2 fluid). In kind it is physicochemical. To be noted: thermodynamic from solid, room temperature.
In a further data set the test system is HeLa cell proliferation. Put plainly: Cytotoxicity test, HeLa cell proliferation (MTS-PMS). In kind it is cell-based. The settings on record: human, HeLa cells, 48 hours incubation, read-out: IC50 (cytotoxicity, proliferation inhibition). As to the method:
50 μL of a HeLa cell solution containing 80000 cells/mL was inoculated into each well of a 96-well microplate, and the mixture was incubated at 37° C. in a 5% carbon dioxide incubator for 24 hours. Thereafter, a medium containing the test compound serially four-fold diluted was added at 50 μL to each well, and the mixture was incubated at 37° C. in a 5% carbon dioxide incubator for 48 hours. As a control with an inhibition rate of 0%, a well not containing the test compound was also prepared. Following washing with phosphate buffered saline, a MTS [3-(4,5-dimethylthiazol-2-yl)-5-(3-carboxymethoxyphenyl)-2-(4-sulphophenyl)-2H-tetrazolium, inner salt]-PMS (phenazine methosulfate) coloring reagent solution was added, and the mixture was allowed to stand at 37° C. in a 5% carbon dioxide incubator for 1.5 hours. Thereafter, the absorbance at 490 nm was determined. The 50% inhibition concentration (IC50) was calculated from the proliferation inhibition rate (%) in the presence of four different concentrations of the test compound.

The subject of a further data set is Haemophilus influenzae. Put plainly: Sensitivity of bacteria, broth microdilution method (MIC). In kind it is cell-based. To be noted: medium obtained by mixing hemophilus test medium with human serum at a ratio of 1:1. As to the method: The antibacterial activity of the compounds of the present invention was tested by sensitivity tests by the broth microdilution method. The assay was carried out according to the latest CLSI guidelines for managing the procedures of sensitivity tests: “M7-A7 Methods for Dilution Antimicrobial Susceptibility Tests for Bacteria That Grow Aerobically; Approved Standard—Seventh Edition (2006)”. Test strains were grown on appropriate agar plates overnight. A broth containing the test compound serially two-fold diluted was dispensed at 100 μL to each well of a 96-well microplate. As a growth control, a well with a broth not containing the test compound was also prepared. Colonies grown on the plates were suspended in saline, adjusted to 0.5 McFarland (OD625=0.08 to 0.10) using a colorimeter, and then diluted ten-fold with saline. The bacterial suspension was inoculated at 4 μL into each well of the microplate using a bacterial suspension inoculation apparatus. The inoculated microplate was incubated at 35° C. overnight (about 20 hours). The growth condition was observed by the naked eye, and the minimum concentration to inhibit bacterial proliferation was defined as a minimum inhibitory concentration (MIC).

One may read the solubility as how much of the substance goes into solution per volume.

Chain of ParE of Haemophilus influenzae (P43703 whole entry): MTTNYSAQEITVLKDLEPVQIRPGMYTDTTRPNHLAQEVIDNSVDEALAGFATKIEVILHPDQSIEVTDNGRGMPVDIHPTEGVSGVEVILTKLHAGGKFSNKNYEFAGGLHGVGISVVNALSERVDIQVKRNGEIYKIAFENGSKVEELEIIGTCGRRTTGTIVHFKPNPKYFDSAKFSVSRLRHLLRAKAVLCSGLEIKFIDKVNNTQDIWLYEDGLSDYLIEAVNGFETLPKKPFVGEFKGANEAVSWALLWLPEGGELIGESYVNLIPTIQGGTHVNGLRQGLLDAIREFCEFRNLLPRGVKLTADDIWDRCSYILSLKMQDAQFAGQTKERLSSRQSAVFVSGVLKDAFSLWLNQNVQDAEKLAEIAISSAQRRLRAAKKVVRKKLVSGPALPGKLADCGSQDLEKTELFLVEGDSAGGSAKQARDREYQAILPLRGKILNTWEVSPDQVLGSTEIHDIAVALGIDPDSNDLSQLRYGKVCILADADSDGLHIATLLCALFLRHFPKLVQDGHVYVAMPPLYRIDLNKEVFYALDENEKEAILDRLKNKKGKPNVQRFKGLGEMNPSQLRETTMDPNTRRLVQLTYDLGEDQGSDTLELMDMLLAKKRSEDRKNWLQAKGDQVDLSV

In data set [1], `CO[C@H]1CN(c2nc3cccc(C(=O)O)c3s2)CC[C@H]1NC(=O)c1nc(Cl)c(C)[nH]1` (racemic) [Example 8, cis(±)-2-(4-{[(4-Chloro-5-methyl-1H-imidazol-2-yl)carbonyl]amino}-3-methoxypiperidin-1-yl)-1,3-benzothiazole-7-carboxylic acid] gave an IC50 of 131 nM. The solubility in data set [2] (pH 1.2, simulated gastric fluid, 1st fluid for the disintegration test of the Japanese Pharmacopoeia, read-out: solubility in JP1 fluid) was 100 µg/mL (≈ 222 µM); in data set [2] (pH 6.8, aqueous buffer, 2nd fluid for the disintegration test of the Japanese Pharmacopoeia, read-out: solubility in JP2 fluid), 720 µg/mL (≈ 1600 µM). In the data set on HeLa cell proliferation, the IC50 at 48 h was more than 200 µg/mL. Further, the MIC in the data set with Haemophilus influenzae stood at 4 µg/mL.
